This assay deals with T1, human RIPK1 (1-375) (Homo sapiens, UniProt Q13546).
T1 construct: human RIPK1 (1-375) gene; GST; made in house; host or cells: Sf-9 insect cells
T1 sequence (Q13546 1-375): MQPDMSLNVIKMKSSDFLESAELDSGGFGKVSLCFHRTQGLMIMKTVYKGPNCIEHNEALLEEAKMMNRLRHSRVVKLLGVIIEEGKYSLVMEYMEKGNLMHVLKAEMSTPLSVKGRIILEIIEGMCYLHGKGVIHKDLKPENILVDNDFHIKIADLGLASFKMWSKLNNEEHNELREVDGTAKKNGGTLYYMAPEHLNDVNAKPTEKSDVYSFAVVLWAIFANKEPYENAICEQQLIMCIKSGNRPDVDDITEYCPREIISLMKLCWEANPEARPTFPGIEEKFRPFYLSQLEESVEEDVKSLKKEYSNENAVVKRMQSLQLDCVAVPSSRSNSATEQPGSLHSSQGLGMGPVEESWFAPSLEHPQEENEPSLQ
In words: Human RIPK1 enzyme inhibitory effect (ADP-Glo Kinase Assay). Type of assay: biochemical. As to conditions: well without enzyme = 100% inhibition; for inhibition at 10 µM: read-out: human RIPK1 enzyme inhibitory effect at 10 μM (% inhibition), 10 μM test compound; for human RIPK1 enzyme inhibitory effect at 10 μM (% inhibition): 10 μM test compound. In short, it runs like this: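 ADP-Glo luminescence read-out of ADP formed over 120 min at room temperature after adding 0.6 mM ATP solution (stock concentration). Compound and Sf-9-expressed, GST-purified RIPK1 (1-375) were first incubated together for 20 min in HEPES pH 7.5 buffer with MgCl2, Tween-20 and DTT.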

SMILES strings stand for the structures.

Broadly, the inhibition is the change of the read-out against control, counted positive when it falls. Regarding `CN1C(=O)[C@@H](N2CCc3c(nn(Cc4ccccc4)c3O)C2=O)COc2ccccc21` [Example 49, (3S)-3-(2-benzyl-3-hydroxy-7-oxo-2,4,5,7-tetrahydro-6H-pyrazolo[3,4-c]pyridin-6-yl)-5-methyl-2,3-dihydro-1,5-benzoxazepin-4(5H)-one], the inhibition at 10 µM worked out at 87%.
Same read-out and setting: with `CN1C(=O)[C@@H](N2CCc3c(nn(Cc4ccccc4)c3Cl)C2=O)COc2ccc(C(N)=O)cc21` [Example 81, (3S)-3-(2-benzyl-3-chloro-7-oxo-2,4,5,7-tetrahydro-6H-pyrazolo[3,4-c]pyridin-6-yl)-5-methyl-4-oxo-2,3,4,5-tetrahydro-1,5-benzoxazepine-7-carboxamide] the figure was 101%; with `CNC(=O)c1cc2c(cc1F)N(C)C(=O)[C@@H](N1CCc3c(nn(Cc4ccccc4)c3Cl)C1=O)CO2` [Example 122, (3S)-3-(2-benzyl-3-chloro-7-oxo-2,4,5,7-tetrahydro-6H-pyrazolo[3,4-c]pyridin-6-yl)-7-fluoro-N,5-dimethyl-4-oxo-2,3,4,5-tetrahydro-1,5-benzoxazepine-8-carboxamide], 101%; with `CN1C(=O)[C@@H](N2CCc3cn(Cc4cccc(Cl)c4)nc3C2=O)COc2ccccc21` [Example 26, (3S)-3-(2-(3-chlorobenzyl)-7-oxo-2,4,5,7-tetrahydro-6H-pyrazolo[3,4-c]pyridin-6-yl)-5-methyl-2,3-dihydro-1,5-benzoxazepin-4(5H)-one], 100%.
Regarding `O=C1Nc2ccccc2CCC1N1CCc2cn(Cc3ccccc3)nc2C1=O` (stereo not shown) [Example 3, 3-(2-benzyl-7-oxo-2,4,5,7-tetrahydro-6H-pyrazolo[3,4-c]pyridin-6-yl)-1,3,4,5-tetrahydro-2H-1-benzazepin-2-one], the inhibition at 10 µM stood at 97%.
Take `CN1C(=O)[C@@H](N2CCc3c(nn(Cc4ccccc4)c3Cl)C2=O)COc2cc(Br)ccc21` [Example 58, (3S)-3-(2-benzyl-3-chloro-7-oxo-2,4,5,7-tetrahydro-6H-pyrazolo[3,4-c]pyridin-6-yl)-8-bromo-5-methyl-2,3-dihydro-1,5-benzoxazepin-4(5H)-one]: the inhibition at 10 µM stood at 101%.
With `CN1C(=O)C(N2CCc3c(nn(Cc4ccccc4)c3Cl)C2=O)CCc2cn(C)nc21` (stereo not shown) [Example 113, 6-(2-benzyl-3-chloro-7-oxo-2,4,5,7-tetrahydro-6H-pyrazolo[3,4-c]pyridin-6-yl)-2,8-dimethyl-2,5,6,8-tetrahydropyrazolo[3,4-b]azepin-7(4H)-one], the “human RIPK1 enzyme inhibitory effect at 10 μM (% inhibition)” value came out at 61%.
With `CN1C(=O)C(N2CCc3c(nn(Cc4ccccc4)c3Cl)C2=O)CCc2c1cnn2C` (stereo not shown) [Example 127, 6-(2-benzyl-3-chloro-7-oxo-2,4,5,7-tetrahydro-6H-pyrazolo[3,4-c]pyridin-6-yl)-1,4-dimethyl-4,6,7,8-tetrahydropyrazolo[4,3-b]azepin-5(1H)-one], the “human RIPK1 enzyme inhibitory effect at 10 μM (% inhibition)” value amounted to 100%.
Turning to `CNC(=O)c1ccc2c(c1)CCC(N1CCc3c(nn(Cc4ccccc4)c3Cl)C1=O)C(=O)N2C` (stereo not shown) [Example 135, 3-(2-benzyl-3-chloro-7-oxo-2,4,5,7-tetrahydro-6H-pyrazolo[3,4-c]pyridin-6-yl)-N,1-dimethyl-2-oxo-2,3,4,5-tetrahydro-1H-1-benzazepine-7-carboxamide], the inhibition at 10 µM is 101%.
Turning to `Cc1c2c(nn1Cc1ccccc1)C(=O)N([C@H]1COc3cc(Br)ccc3N(C)C1=O)CC2` [Example 84], the inhibition at 10 µM turned out to be 101%.
`CN1C(=O)[C@@H](N2CCCn3nc(Cc4ccccc4)nc3C2=O)COc2ccccc21` [Example 2, (3S)-3-(2-benzyl-9-oxo-6,7-dihydro-5H-[1,2,4]triazolo[1,5-a][1,4]diazepin-8(9H)-yl)-5-methyl-2,3-dihydro-1,5-benzoxazepin-4(5H)-one]: the inhibition at 10 µM is 91%.
On the same count and under the same terms, for `CN1C(=O)[C@@H](N2CCc3c(nn(Cc4ccccc4)c3OC(F)F)C2=O)COc2cc(Br)ccc21` [Example 123, (3S)-3-(2-benzyl-3-(difluoromethoxy)-7-oxo-2,4,5,7-tetrahydro-6H-pyrazolo[3,4-c]pyridin-6-yl)-8-bromo-5-methyl-2,3-dihydro-1,5-benzoxazepin-4(5H)-one] the value was 98%; for `CN1C(=O)[C@@H](N2CCc3cn(CC4(C)COC4)nc3C2=O)COc2ccccc21` [Example 154, (3S)-5-methyl-3-(2-((3-methyloxetan-3-yl)methyl)-7-oxo-2,4,5,7-tetrahydro-6H-pyrazolo[3,4-c]pyridin-6-yl)-2,3-dihydro-1,5-benzoxazepin-4(5H)-one], 78%; for `Cc1c2c(nn1Cc1ccccc1)C(=O)N([C@H]1COc3cc(C(N)=O)ccc3N(C)C1=O)CC2` [Example 88, (3S)-3-(2-benzyl-3-methyl-7-oxo-2,4,5,7-tetrahydro-6H-pyrazolo[3,4-c]pyridin-6-yl)-5-methyl-4-oxo-2,3,4,5-tetrahydro-1,5-benzoxazepine-8-carboxamide], 101%.
On the same count and under the same terms, with `CNC(=O)c1ccc2c(c1)OC[C@H](N1CCc3c(nn(Cc4ccccc4F)c3C)C1=O)C(=O)N2C` [Example 115, (3S)-3-(2-(2-fluorobenzyl)-3-methyl-7-oxo-2,4,5,7-tetrahydro-6H-pyrazolo[3,4-c]pyridin-6-yl)-N,5-dimethyl-4-oxo-2,3,4,5-tetrahydro-1,5-benzoxazepine-8-carboxamide] the figure was 101%; with `O=C1Nc2ccccc2CCC1N1Cc2sc(Cc3ccccc3)nc2C1=O` (stereo not shown) [Example 15, 3-(2-benzyl-4-oxo-4,6-dihydro-5H-pyrrolo[3,4-d][1,3]thiazol-5-yl)-1,3,4,5-tetrahydro-2H-1-benzazepin-2-one], 91%.
As for `Cc1c2c(nn1Cc1ccccc1)C(=O)N([C@H]1COc3ccccc3N(C)C1=O)CC2` [Example 11, (3S)-3-(2-benzyl-3-methyl-7-oxo-2,4,5,7-tetrahydro-6H-pyrazolo[3,4-c]pyridin-6-yl)-5-methyl-2,3-dihydro-1,5-benzoxazepin-4(5H)-one], the inhibition at 10 µM was found to be 100%.
As for `CN1C(=O)[C@@H](N2CCc3cn(Cc4ccccc4C#N)nc3C2=O)COc2ccccc21` [Example 28, 2-((6-((3S)-5-methyl-4-oxo-2,3,4,5-tetrahydro-1,5-benzoxazepin-3-yl)-7-oxo-4,5,6,7-tetrahydro-2H-pyrazolo[3,4-c]pyridin-2-yl)methyl)benzonitrile], the inhibition at 10 µM came out at 99%.
As for `CN1C(=O)C(N2CCc3c(nn(Cc4ccccc4F)c3Cl)C2=O)CCc2ccncc21` (stereo not shown) [Example 97, 3-(3-chloro-2-(2-fluorobenzyl)-7-oxo-2,4,5,7-tetrahydro-6H-pyrazolo[3,4-c]pyridin-6-yl)-1-methyl-1,3,4,5-tetrahydro-2H-pyrido[3,4-b]azepin-2-one], the “human RIPK1 enzyme inhibitory effect at 10 μM (% inhibition)” value is listed as 98%.
Regarding `CN1C(=O)C(N2CCc3c(nn(Cc4ccccc4F)c3Cl)C2=O)CCc2cnccc21` (stereo not shown) [Example 105, 3-(3-chloro-2-(2-fluorobenzyl)-7-oxo-2,4,5,7-tetrahydro-6H-pyrazolo[3,4-c]pyridin-6-yl)-1-methyl-1,3,4,5-tetrahydro-2H-pyrido[4,3-b]azepin-2-one], the inhibition at 10 µM came out at 99%.
Consider `CN(C)C(=O)c1ccc2c(c1)N(C)C(=O)[C@@H](N1CCc3c(nn(Cc4ccccc4)c3Cl)C1=O)CO2` [Example 90, (3S)-3-(2-benzyl-3-chloro-7-oxo-2,4,5,7-tetrahydro-6H-pyrazolo[3,4-c]pyridin-6-yl)-N,N,5-trimethyl-4-oxo-2,3,4,5-tetrahydro-1,5-benzoxazepine-7-carboxamide], for which the inhibition at 10 µM was determined as 101%.
For `CN1C(=O)C(N2CCc3c(nn(Cc4c(F)cccc4F)c3Cl)C2=O)CCc2c1cnn2C` (stereo not shown) [Example 133, 6-(3-chloro-2-(2,6-difluorobenzyl)-7-oxo-2,4,5,7-tetrahydro-6H-pyrazolo[3,4-c]pyridin-6-yl)-1,4-dimethyl-4,6,7,8-tetrahydropyrazolo[4,3-b]azepin-5(1H)-one], the “human RIPK1 enzyme inhibitory effect at 10 μM (% inhibition)” value worked out at 100%.
With `CN1C(=O)[C@@H](N2CCn3nc(Cc4ccccc4)nc3C2=O)COc2ccccc21` [Example 8, (3S)-3-(2-benzyl-8-oxo-5,6-dihydro[1,2,4]triazolo[1,5-a]pyrazin-7(8H)-yl)-5-methyl-2,3-dihydro-1,5-benzoxazepin-4(5H)-one], the inhibition at 10 µM was 98%.
For `CN1C(=O)C(N2CCc3c(nn(Cc4ccccc4F)c3Cl)C2=O)CCc2cnccc21` (stereo not shown) [Example 96, 3-(3-chloro-2-(2-fluorobenzyl)-7-oxo-2,4,5,7-tetrahydro-6H-pyrazolo[3,4-c]pyridin-6-yl)-1-methyl-1,3,4,5-tetrahydro-2H-pyrido[4,3-b]azepin-2-one], the “human RIPK1 enzyme inhibitory effect at 10 μM (% inhibition)” value is on record as 96%.
On the same count and under the same terms, with `CN1C(=O)C(N2CCc3c(nn(Cc4ccccc4F)c3Cl)C2=O)CCc2nn(C)cc21` (stereo not shown) [Example 121, 6-(3-chloro-2-(2-fluorobenzyl)-7-oxo-2,4,5,7-tetrahydro-6H-pyrazolo[3,4-c]pyridin-6-yl)-2,4-dimethyl-2,6,7,8-tetrahydropyrazolo[4,3-b]azepin-5(4H)-one] the figure was 86%.

(Values after patent US10787462B2, “Heterocyclic compound” (TAKEDA PHARMACEUTICAL COMPANY LIMITED, priority 2015, dated 2020).)
